{"source": "patent US20260158002A1", "about": "“APPLICATION OF COMPOSITION CONTAINING EDARAVONE AND DEXBORNEOL IN IMPROVING OR TREATING COGNITIVE IMPAIRMENT” (NEURODAWN PHARMACEUTICAL CO., LTD., priority 2021, published 2026)", "key": {"[1]": {"system": "rat model of scopolamine-induced dementia", "details": "oral 15 mg/kg/day for 7 consecutive days; cited from earlier work"}, "[2]": {"system": "rat model in which oligomerized Aβ1-40 is injected into the hippocampal dentate gyrus", "details": "edaravone 5 mg/kg at the same site with intracerebral Aβ injection; cited from earlier work"}, "[3]": {"system": "tau P301L transgenic mouse model", "details": "tau P301L mice aged 9 to 10 months and 21 months; oral with drinking water 24 mg/kg/day for 3 consecutive months; cited from earlier work"}, "SH-SY5Y-APP695": {"system": "SH-SY5Y-APP695", "details": "0.3 to 3 μM; cited from earlier work"}, "[4]": {"system": "primary hippocampal neurons", "details": "cited from earlier work"}, "[5]": {"system": "SH-SY5Y and primary cortical neurons", "details": "cited from earlier work"}, "ICV-STZ model rats": {"system": "ICV-STZ model rats", "details": "cited from earlier work"}, "[6]": {"system": "mouse model of AlCl3/D-galactose-induced cognitive impairment", "details": "intraperitoneal for 15 consecutive days; cited from earlier work"}, "5×FAD transgenic mice [7]": {"system": "5×FAD transgenic mice", "assay": "Brain slice electrophysiology test (hippocampal LTP) in 5×FAD transgenic mice", "type": "in vivo, mouse", "details": "brain slices after 16 weeks of administration; edaravone 6 mg/kg or composition 7.5 mg/kg i.p. once daily", "protocol": "(§1) In the experiment, the animals were divided into 4 groups. Administration was performed on the mice in each group from 8 weeks of age. After 16 weeks of continuous daily administration, water maze and Y maze behavioral tests were performed. After the behavioral tests were completed, the animals were sacrificed, and brain slice electrophysiology and AD pathology within the brain were tested, including the test of Aβ plaques, biomarkers such as GFAP and Iba-1, p-Tau, etc.\nElectrophysiological recording was performed after the behavioral test of mice was completed. After anesthesia, all mice were euthanized, the brain tissues were rapidly collected and stored in 4° C. oxygenated (95% O2/5% CO2) artificial cerebrospinal fluid (ACSF) (75 mM sucrose, 87 mM NaCl, 2.5 mM KCl), 1.25 mM NaH2PO4, 21.4 mM NaHCO3, 0.5 mM CaCl2, 7 mM MgCl2 and 20 mM glucose. Hippocampal slices were cut by a vibrating knife in 4° C. oxygenated ACSF, and in 32° C. oxygenated ACSF. Next, the slices were incubated at room temperature for 1 hour before recording. Hippocampal LTP was induced by two theta burst stimulations (TBS). Data acquisition and analysis were performed using Clampex and Clampfit 8.2 (Molecular Devices).\n(§2) Data were expressed as Mean±SEM. […]"}, "5×FAD transgenic mice [8]": {"system": "5×FAD transgenic mice", "assay": "Y maze test in 5×FAD transgenic mice", "type": "in vivo, mouse", "details": "5×FAD mice; edaravone 6 mg/kg or composition 7.5 mg/kg i.p. once daily for 16 weeks", "protocol": "as §1\n(§3) 5×FAD: edaravone group: ten 5×FAD mice were given edaravone ( ? ®) 6 mg/kg via i.p. at a dose of 10.0 mL/kg once daily.\n5×FAD: composition group: ten 5×FAD mice were given 7.5 mg/kg edaravone and dexborneol concentrated solution for injection ( ? ®) (edaravone:dexborneol=4:1, containing 6 mg/kg edaravone and 1.5 mg/kg dexborneol) at a dose of 10.0 ml/kg once daily. […]\nTesting: After 1 h of training, the baffle was removed, the channel of the Y maze was wiped with alcohol to remove the odor of the previous mouse, the mouse to be tested was placed in the same position for 5 min and video recording was performed, and the number of times the mouse entered the newly opened arm as a percentage of the total number of times it entered the three arms was recorded in the test.\nas §2"}, "5×FAD transgenic mice [9]": {"system": "5×FAD transgenic mice", "assay": "Water maze test in 5×FAD transgenic mice", "type": "in vivo, mouse", "details": "5×FAD mice", "protocol": "as §1, §3\n5×FAD: composition group: ten 5×FAD mice were given 7.5 mg/kg edaravone and dexborneol concentrated solution for injection ( ? ®) (edaravone:dexborneol=4:1, containing 6 mg/kg edaravone and 1.5 mg/kg dexborneol) at a dose of 10.0 ml/kg once daily.\nExperiment preparation: A constant temperature pool (120 cm in inner diameter and 50 cm in height) of a water maze was filled with clear water. The water temperature was controlled at about 18° C.-22° C. The four apexes of the pool were selected and designated as “S”, “N”, “W” and “E”, respectively. The platform was placed in the “SW” direction and 1-2 cm below the water surface. Titanium dioxide was added to the water to make the water opaque milky white.\nParameter setting: the test time was set to 1 min, and the residence time of mice on the platform was set to 2 s.\nTraining: The first 5 days were for the training phase of the water maze, the mice were placed in the pool in four different orientations every day, and their trajectories before boarding the platform, as well as the travel and time in each quadrant were recorded.\nTesting: Testing was performed on the first day after the training was completed. During the testing, the platform was removed, the testing time was 60 s, the mouse was placed in the NE orientation, and the number of times the mouse crossed the platform and the time in the platform quadrant during the testing were recorded.\nas §2"}, "[10]": {"details": "mice; cited from earlier work"}, "5×FAD transgenic mice [11]": {"system": "5×FAD transgenic mice", "assay": "AD pathology examination (immunohistochemical test) in 5×FAD transgenic mice", "type": "in vivo, mouse", "details": "5×FAD mice; edaravone 6 mg/kg or composition 7.5 mg/kg i.p. once daily for 16 weeks", "protocol": "as §1\nAfter the behavioral test of animals was completed, the mice were subjected to cardiac perfusion followed by brain removal, and the brain was fixed in 4% paraformaldehyde for 24 h, dehydrated with 30% sucrose, snap-frozen and embedded with an embedding medium, and sliced (thickness […]). The brain slices having the hippocampal region were selected, washed with PBS for 5 min×3 times, permeabilized with 0.2% Triton, washed with PBS for 7 min×3 times, and blocked with Blocking buffer (2.5% BSA, 0.3% Triton) for 1 h. The brain slices were placed in a primary antibody overnight at 4° C. On the second day, the brain slices in the primary antibody were taken out, washed with PBS for 5 min×3 times, placed in a second antibody, and incubated for 1 h at room temperature in the dark. The brain slices were taken out and washed with PBS for 5 min×3 times. An anti-fluorescence quencher containing DAPI was added dropwise, and the slices were mounted.\nData were expressed as Mean±SEM. Statistical analysis between groups was performed using Prism software (GraphPad, USA): One-way or Two-way ANOVA was used for comparison of two or more groups, and then Fisher's LSD test was selected for analysis. P<0.05 indicated significant difference. ##p<0.01, ###p<0.001, ####p<0.0001, comparison with WT group; *p<0.05, **p<0.01, […], ****p<0.0001, comparison with model group; & p<0.05, &&p<0.01, &&&&p<0.0001, comparison between two groups indicated."}, "[12]": {"details": "edaravone 6 mg/kg or composition 7.5 mg/kg i.p. once daily for 16 weeks"}}}
{"smiles": "CC1=NN(c2ccccc2)C(=O)C1", "note": "[edaravone, 3-methyl-1-phenyl-2-pyrazolin-5-one]", "values": [{"measurement": "scopolamine-induced spatial learning and long-term memory impairments", "setting": "[1]", "value": "can improve scopolamine-induced spatial learning and long-term memory impairments"}, {"measurement": "spatial learning and memory in water maze", "setting": "[2]", "value": "can significantly improve the spatial learning and memory of rats in water maze"}, {"measurement": "cognitive function in water maze test and novel object recognition test", "setting": "[3]", "value": "can significantly improve the cognitive function of the animals in water maze test and novel object recognition test"}, {"measurement": "BACE1 expression, cleavage of APP and Aβ production", "setting": "SH-SY5Y-APP695", "value": "capable of reducing BACE1 expression, cleavage of APP and Aβ production in a concentration-dependent manner"}, {"measurement": "GSK-3β activation and tau phosphorylation", "setting": "SH-SY5Y-APP695", "value": "inhibiting GSK-3β activation and reducing tau phosphorylation"}, {"measurement": "H2O2- and glutamate-induced death of primary hippocampal neurons", "setting": "[4]", "value": "capable of reducing H2O2— and glutamate-induced death of primary hippocampal neurons"}, {"measurement": "neurotoxicity of Aβ1-42", "setting": "[5]", "value": "capable of reducing the neurotoxicity of Aβ1-42 to SH-SY5Y and primary cortical neurons"}, {"measurement": "spatial learning and memory (Morris water maze) and non-spatial long-term memory (step-down passive avoidance)", "setting": "ICV-STZ model rats; intraperitoneal 9 mg/kg/day for 14 consecutive days", "value": "can significantly improve the spatial learning and memory"}, {"measurement": "cognitive function in water maze test and passive avoidance test", "setting": "ICV-STZ model rats; oral 1, 3 and 10 mg/kg/day for 28 consecutive days", "value": "can also improve the cognitive function of ICV-STZ rats in water maze test and passive avoidance test"}, {"measurement": "cognitive function in water maze test and step-down test", "setting": "[6]", "value": "significantly improves the cognitive function as tested by water maze test and step-down test"}, {"measurement": "restoration of hippocampal LTP, vs 5×FAD mouse group", "setting": "5×FAD transgenic mice [7]", "value": "no obvious restoration effect"}, {"measurement": "number of times the mouse entered the newly opened arm in Y maze, vs solvent control", "setting": "5×FAD transgenic mice [8]", "value": "could significantly increase the number of times the mouse entered the newly opened arm"}, {"measurement": "number of times the mouse crossed the platform in platform withdrawal test, vs solvent control", "setting": "5×FAD transgenic mice [9]; [12]", "value": "prolong the residence time in the target quadrant and the number of times the mouse crossed the platform"}, {"measurement": "residence time in the target quadrant in platform withdrawal test, vs solvent control", "setting": "5×FAD transgenic mice [9]; [12]", "value": "prolong the residence time in the target quadrant"}, {"measurement": "escape latency in water maze hidden platform test, vs solvent control", "setting": "5×FAD transgenic mice [9]; edaravone 6 mg/kg or composition 7.5 mg/kg i.p. once daily for 16 weeks from 8 weeks of age", "value": "could significantly shorten the escape latency"}, {"measurement": "oral bioavailability", "setting": "[10]", "value": 38, "unit": "%"}, {"measurement": "astrogliosis within the brain, vs solvent control group", "setting": "5×FAD transgenic mice [11]", "value": "could significantly decrease"}, {"measurement": "hippocampal tau protein hyperphosphorylation, vs solvent control group", "setting": "5×FAD transgenic mice [11]", "value": "could significantly decrease"}, {"measurement": "microgliosis within the brain, vs solvent control group", "setting": "5×FAD transgenic mice [11]", "value": "could significantly decrease"}, {"measurement": "β-amyloid plaques within the brain, vs solvent control group", "setting": "5×FAD transgenic mice [11]", "value": "could significantly decrease"}]}
